Assay [1] deals with a variety of test species. Put plainly: Post-emergence herbicidal activity (Example 8b, Table 3). Format: in vivo. The following applies: application post-emergence, rate 1000 g/ha, evaluated after 13 days, scale 0-5; for Herbicidal damage score, ABUTH: Abutilon theophrasti; for Herbicidal damage score, ALOMY: Alopecurus myosuroides; for Herbicidal damage score, AMARE: Amaranthus retroflexus; for Herbicidal damage score, ECHCG: Echinochloa crus-galli; for Herbicidal damage score, SETFA: Setaria faberi; for Herbicidal damage score, ZEAMX: Zea mays. How it is done: (§1) Seeds of a variety of test species were sown in standard soil in pots. After 8 days cultivation (post-emergence) under controlled conditions in a glasshouse (at 24/16° C., day/night; 14 hours light; 65% humidity), the plants were sprayed with an aqueous spray solution derived from the formulation of the technical active ingredient in acetone/water (50:50) solution containing 0.5% Tween 20 (polyoxyethelyene sorbitan monolaurate, CAS RN 9005-64-5). The test plants were then grown in a glasshouse under controlled conditions (at 24/16° C., day/night; 14 hours light; 65% humidity) and watered twice daily. After 13 days, the test was evaluated (5=total damage to plant; 0=no damage to plant).

Assay [2] relates to a variety of test species. Put plainly: Pre-emergence herbicidal activity (Example 8a, Table 2). Format: in vivo. Set-up: key: 0 = no damage to plant, 5 = total damage to plant. The following applies: application pre-emergence, rate 1000 g/ha, evaluated after 13 days. As to the method:
as §1, with “After” for “After 8 days”, “for one day (pre-emergence)” for “(post-emergence)”

In the case of `CC1=C(Cl)C(=O)N(c2cc3n(n2)CCC3C)C1O` (mixture of isomers) [Compound G6], in assay [1], the “Herbicidal damage score, ABUTH” value was 5; the “Herbicidal damage score, ALOMY” value was determined as 5; the “Herbicidal damage score, AMARE” value is 5; the “Herbicidal damage score, ECHCG” value came to 5. In addition, in assay [1], the “Herbicidal damage score, SETFA” value was determined as 5 and the “Herbicidal damage score, ZEAMX” value is 5. Further, in assay [2], the “Pre-emergence herbicidal activity, damage score ABUTH” value turned out to be 5; the “Pre-emergence herbicidal activity, damage score ALOMY” value worked out at 4; the “Pre-emergence herbicidal activity, damage score AMARE” value came out at 5; the “Pre-emergence herbicidal activity, damage score ECHCG” value is reported as 5. Besides, in assay [2], the “Pre-emergence herbicidal activity, damage score SETFA” value turned out to be 4 and the “Pre-emergence herbicidal activity, damage score ZEAMX” value came to 3.

Consider `CC1=C(Cl)C(=O)N(c2cc(C(F)(F)F)n(CC(F)(F)F)n2)C1O` (stereo not drawn) [Compound C9], for which, in assay [1], the “Herbicidal damage score, ABUTH” value was 4; the “Herbicidal damage score, ALOMY” value was determined as 5; the “Herbicidal damage score, AMARE” value worked out at 5; the “Herbicidal damage score, ECHCG” value was 5. In assay [1], the “Herbicidal damage score, SETFA” value is 5 and the “Herbicidal damage score, ZEAMX” value worked out at 3. In assay [2], the “Pre-emergence herbicidal activity, damage score ABUTH” value is given as 2; the “Pre-emergence herbicidal activity, damage score ALOMY” value is listed as 3; the “Pre-emergence herbicidal activity, damage score AMARE” value was 3; the “Pre-emergence herbicidal activity, damage score ECHCG” value is 4. In addition, in assay [2], the “Pre-emergence herbicidal activity, damage score SETFA” value is recorded as 4 and the “Pre-emergence herbicidal activity, damage score ZEAMX” value is listed as 2.

In the case of `CC1=C(Cl)C(=O)N(c2cc(C)n(C(F)(F)F)n2)C1O` (stereo not drawn) [Compound C13], in assay [1], the “Herbicidal damage score, ABUTH” value was found to be 1; the “Herbicidal damage score, ALOMY” value is on record as 1; the “Herbicidal damage score, AMARE” value is reported as 1; the “Herbicidal damage score, ECHCG” value is recorded as 1. For the same compound, in assay [1], the “Herbicidal damage score, SETFA” value stood at 2 and the “Herbicidal damage score, ZEAMX” value is listed as 1. Moreover, in assay [2], the “Pre-emergence herbicidal activity, damage score ABUTH” value is 3; the “Pre-emergence herbicidal activity, damage score ALOMY” value is recorded as 2; the “Pre-emergence herbicidal activity, damage score AMARE” value stood at 2; the “Pre-emergence herbicidal activity, damage score ECHCG” value is listed as 2. Besides, in assay [2], the “Pre-emergence herbicidal activity, damage score SETFA” value came out at 2 and the “Pre-emergence herbicidal activity, damage score ZEAMX” value is listed as 0.

Take `CCC1CCCn2nc(N3C(=O)C(Cl)=C(C)C3O)cc21` (mixture of isomers) [Compound G7]: in assay [1], the “Herbicidal damage score, ABUTH” value is listed as 5; the “Herbicidal damage score, ALOMY” value is reported as 4; the “Herbicidal damage score, AMARE” value is given as 5; the “Herbicidal damage score, ECHCG” value was 5. Also, in assay [1], the “Herbicidal damage score, SETFA” value came to 5 and the “Herbicidal damage score, ZEAMX” value stood at 5. Further, in assay [2], the “Pre-emergence herbicidal activity, damage score ABUTH” value came out at 5; the “Pre-emergence herbicidal activity, damage score ALOMY” value was 3; the “Pre-emergence herbicidal activity, damage score AMARE” value is recorded as 5; the “Pre-emergence herbicidal activity, damage score ECHCG” value is listed as 5. In addition, in assay [2], the “Pre-emergence herbicidal activity, damage score SETFA” value is 4 and the “Pre-emergence herbicidal activity, damage score ZEAMX” value was found to be 1.

As to `C=CCC(C)(C)c1cc(N2C(=O)C(Cl)=C(C)C2O)nn1C` (stereo not drawn) [Compound B6, 4-chloro-1-[5-(1,1-dimethylbut-3-enyl)-1-methyl-pyrazol-3-yl]-2-hydroxy-3-methyl-2H-pyrrol-5-one], in assay [1], the “Herbicidal damage score, ABUTH” value amounted to 5; the “Herbicidal damage score, ALOMY” value amounted to 5; the “Herbicidal damage score, AMARE” value stood at 5; the “Herbicidal damage score, ECHCG” value was 5. In assay [1], the “Herbicidal damage score, SETFA” value is on record as 5 and the “Herbicidal damage score, ZEAMX” value is reported as 4. Further, in assay [2], the “Pre-emergence herbicidal activity, damage score ABUTH” value is given as 5; the “Pre-emergence herbicidal activity, damage score ALOMY” value was 4; the “Pre-emergence herbicidal activity, damage score AMARE” value worked out at 5; the “Pre-emergence herbicidal activity, damage score ECHCG” value came out at 4. In addition, in assay [2], the “Pre-emergence herbicidal activity, damage score SETFA” value stood at 5 and the “Pre-emergence herbicidal activity, damage score ZEAMX” value is 4.

Regarding `CC1=C(Cl)C(=O)N(c2cc(C3=CCC(C)(C)CC3)n(C)n2)C1O` (stereo not drawn) [Compound B12], in assay [1], the “Herbicidal damage score, ABUTH” value turned out to be 1; the “Herbicidal damage score, ALOMY” value was 1; the “Herbicidal damage score, AMARE” value was determined as 2; the “Herbicidal damage score, ECHCG” value came out at 1. Moreover, in assay [1], the “Herbicidal damage score, SETFA” value is 1 and the “Herbicidal damage score, ZEAMX” value was 1. For the same compound, in assay [2], the “Pre-emergence herbicidal activity, damage score ABUTH” value turned out to be 4; the “Pre-emergence herbicidal activity, damage score ALOMY” value stood at 0; the “Pre-emergence herbicidal activity, damage score AMARE” value is reported as 1; the “Pre-emergence herbicidal activity, damage score ECHCG” value is recorded as 0. Also, in assay [2], the “Pre-emergence herbicidal activity, damage score SETFA” value came out at 2 and the “Pre-emergence herbicidal activity, damage score ZEAMX” value is reported as 1.

On to `CC1=C(Cl)C(=O)N(c2cc(C(C)C)n(C)n2)C1O` (stereo not drawn) [Compound B14], for which, in assay [1], the “Herbicidal damage score, ABUTH” value is recorded as 5; the “Herbicidal damage score, ALOMY” value is on record as 4; the “Herbicidal damage score, AMARE” value worked out at 5; the “Herbicidal damage score, ECHCG” value turned out to be 5. Further, in assay [1], the “Herbicidal damage score, SETFA” value was 4 and the “Herbicidal damage score, ZEAMX” value was 5. For the same compound, in assay [2], the “Pre-emergence herbicidal activity, damage score ABUTH” value was 5; the “Pre-emergence herbicidal activity, damage score ALOMY” value is recorded as 3; the “Pre-emergence herbicidal activity, damage score AMARE” value was found to be 5; the “Pre-emergence herbicidal activity, damage score ECHCG” value was determined as 5. In assay [2], the “Pre-emergence herbicidal activity, damage score SETFA” value was determined as 4 and the “Pre-emergence herbicidal activity, damage score ZEAMX” value was 2.

In the case of `CC(C)=CCc1cc(N2C(=O)C(Cl)=C(C)C2O)nn1C` (stereo not drawn) [Compound B10, 4-chloro-2-hydroxy-3-methyl-1-[1-methyl-5-(3-methylbut-2-enyl)pyrazol-3-yl]-2H-pyrrol-5-one], in assay [1], the “Herbicidal damage score, ABUTH” value is listed as 3; the “Herbicidal damage score, ALOMY” value came out at 0; the “Herbicidal damage score, AMARE” value is 0; the “Herbicidal damage score, ECHCG” value turned out to be 2. Also, in assay [1], the “Herbicidal damage score, SETFA” value was 5 and the “Herbicidal damage score, ZEAMX” value amounted to 2. In assay [2], the “Pre-emergence herbicidal activity, damage score ABUTH” value was 0; the “Pre-emergence herbicidal activity, damage score ALOMY” value stood at 0; the “Pre-emergence herbicidal activity, damage score ECHCG” value is 0; the “Pre-emergence herbicidal activity, damage score SETFA” value worked out at 0. Also, the “Pre-emergence herbicidal activity, damage score ZEAMX” value in assay [2] was 0.

Regarding `CCn1nc(N2C(=O)C(Cl)=C(C)C2O)cc1C(C)(C)C` (stereo not drawn) [Compound C2], in assay [1], the “Herbicidal damage score, ABUTH” value turned out to be 5; the “Herbicidal damage score, ALOMY” value is reported as 5; the “Herbicidal damage score, AMARE” value was determined as 4; the “Herbicidal damage score, ECHCG” value is recorded as 5. In assay [1], the “Herbicidal damage score, SETFA” value amounted to 5 and the “Herbicidal damage score, ZEAMX” value is on record as 3. In assay [2], the “Pre-emergence herbicidal activity, damage score ABUTH” value stood at 4; the “Pre-emergence herbicidal activity, damage score ALOMY” value was 4; the “Pre-emergence herbicidal activity, damage score AMARE” value was determined as 5; the “Pre-emergence herbicidal activity, damage score ECHCG” value stood at 4. Also, in assay [2], the “Pre-emergence herbicidal activity, damage score SETFA” value is 5 and the “Pre-emergence herbicidal activity, damage score ZEAMX” value came to 2.

Turning to `COC1=C(C)C(O)N(c2cc3n(n2)CCC3(C)C)C1=O` (stereo not drawn) [Compound R1], in assay [1], the “Herbicidal damage score, ABUTH” value stood at 5; the “Herbicidal damage score, ALOMY” value stood at 5; the “Herbicidal damage score, AMARE” value amounted to 5; the “Herbicidal damage score, ECHCG” value was determined as 5. For the same compound, in assay [1], the “Herbicidal damage score, SETFA” value is 5 and the “Herbicidal damage score, ZEAMX” value is on record as 5. Besides, in assay [2], the “Pre-emergence herbicidal activity, damage score ABUTH” value is 5; the “Pre-emergence herbicidal activity, damage score ALOMY” value came out at 4; the “Pre-emergence herbicidal activity, damage score AMARE” value is on record as 5; the “Pre-emergence herbicidal activity, damage score ECHCG” value was 5. Further, in assay [2], the “Pre-emergence herbicidal activity, damage score SETFA” value stood at 5 and the “Pre-emergence herbicidal activity, damage score ZEAMX” value is recorded as 4.

Regarding `C=CCC(C)(C)c1cc(N2C(=O)C(Cl)=C(C)C2O)nn1C` (stereo not drawn) [Compound B23], the “Herbicidal damage score, ZEAMX” value in assay [1] is on record as 4. Also, in assay [2], the “Pre-emergence herbicidal activity, damage score ALOMY” value was found to be 4; the “Pre-emergence herbicidal activity, damage score ECHCG” value is 4; the “Pre-emergence herbicidal activity, damage score ZEAMX” value turned out to be 4.

These data come from patent US9605004B2, “Chemical compounds” (SYNGENTA LIMITED, priority 2013, dated 2017).
